Target: T1, human P2X4 (Homo sapiens, UniProt Q99571)
T1 construct: expressed in transfected cells
T1 sequence (Q99571 1-388): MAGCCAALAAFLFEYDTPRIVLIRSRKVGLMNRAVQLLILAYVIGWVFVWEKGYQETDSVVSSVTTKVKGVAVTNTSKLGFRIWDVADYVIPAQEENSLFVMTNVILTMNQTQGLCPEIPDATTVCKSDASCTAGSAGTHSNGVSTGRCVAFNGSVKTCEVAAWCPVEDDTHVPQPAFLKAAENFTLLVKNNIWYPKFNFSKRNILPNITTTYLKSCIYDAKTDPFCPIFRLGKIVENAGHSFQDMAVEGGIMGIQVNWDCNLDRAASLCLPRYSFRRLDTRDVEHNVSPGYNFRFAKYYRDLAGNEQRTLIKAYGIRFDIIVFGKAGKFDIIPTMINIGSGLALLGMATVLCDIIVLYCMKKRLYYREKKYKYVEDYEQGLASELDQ
Test: Human P2X4 HEK Cell FLIPR Assay
Format: cell-based
Details: HEK293 stably expressing human P2X4, agonist Bz-ATP 3 μM (EC80); for IC50: read-out: Human P2X4 HEK Cells (FLIPR Assay) avg IC50
Protocol: Compounds were tested on a HEK293 cell line stably expressing human P2X4. Cells were cultured on poly-D-lysine-coated 384-well plates at a density of 15,000 cells/well and incubated overnight at 37° C., 5% CO2. P2X4 function was assessed by measuring intracellular calcium fluxes caused by Benzoylbenzoyl-ATP (Bz-ATP) using the calcium-chelating dye Fluo8-AM (Molecular Devices) with the Fluorescent Imaging Plate Reader Tetra (FLIPR^Tetra; Molecular Devices CA). On the day of the assay, the medium was removed and the cells were incubated for 30 min at 37° C. and 5% CO2 in 30 μl of dye buffer (Hank's balanced salt solution, 10 mM HEPES, 1.8 mM CaCl2, 1 mM MgCl2, 2 mM probenecid, 5 mM D-glucose monohydrate, 5 μM Fluo8-AM, pH=7.4). Compounds diluted in probenecid buffer (Hank's balanced salt solution, 10 mM HEPES, 1.8 mM CaCl2, 1 mM MgCl2, 2 mM probenecid, 5 mM D-glucose monohydrate, pH=7.4) at ten concentrations ranging from 25 μM to 1 nM (final concentration) were dispensed and incubated for 30 min at room temperature. […] The final assay volume was 50 μl and final DMSO concentration was 0.5%.
The fluorescence intensity reflecting intracellular calcium changes was recorded before and after Bz-ATP addition, at an excitation and emission wavelengths of 470-495 nm and 515-575 nm respectively.
The compounds were tested in triplicates and fluorescence intensity raw data normalized to the agonist control and fitted to the four-parameter logistic equation:
Y=Bottom+(Top−Bottom)/(1+10^((Log IC50−X)*HillSlope))
Assay plate acceptance was based on the signal window (S/B)[…] and the reference compound pIC50 within ±3σ the mean of historic pIC50 of the compound. Failure to meet two of the three criteria determined exclusion of the plate's results.

Structure (SMILES)	Human P2X4 HEK Cells (FLIPR Assay) avg Efficacy [%]	IC50 [nM]
COc1cc(F)cc(N(C(C)=O)c2cc(NC(=O)Cc3c(F)cccc3Cl)ccn2)c1 [Example 164, N-{4-[2-(2-Chlor-6-fluorphenyl)acetamido]pyridin-2-yl}-N-(3-fluor-5-methoxyphenyl)acetamide]	100	683
CC(=O)N(c1cc(NC(=O)Cc2ccc(F)cc2Cl)ccn1)c1ccccc1C(F)F [Example 169, N-{4-[2-(2-Chlor-4-fluorphenyl)acetamido]pyridin-2-yl}-N-[2-(difluormethyl)phenyl]acetamide]	101	813
COc1ccc(N(C(C)=O)c2cc(NC(=O)Cc3ccc(F)cc3Cl)ccn2)cc1F [Example 78, N-{4-[2-(2-chloro-4-fluorophenyl)acetamido]pyridin-2-yl}-N-(3-fluoro-4-methoxyphenyl)acetamide]	94	573
CC(=O)N(c1cc(F)c(C)c(F)c1)c1cc(NC(=O)Cc2c(Cl)cccc2Cl)ccn1 [Example 95, N-{4-[2-(2,6-dichlorophenyl)acetamido]pyridin-2-yl}-N-(3,5-difluoro-4-methylphenyl)acetamide]	100	694
CC(=O)N(c1ccc(OC(F)F)cc1)c1cc(NC(=O)Cc2cccc(F)c2Cl)ccn1 [Example 48, N-{4-[2-(2-chloro-3-fluorophenyl)acetamido]pyridin-2-yl}-N-[4-(difluoromethoxy)phenyl]acetamide]	99	579
CC(=O)N(c1cccc(OC(F)(F)F)c1)c1cc(NC(=O)Cc2ccccc2Cl)ccn1 [Example 102, N-{4-[2-(2-chlorophenyl)acetamido]pyridin-2-yl}-N-[3-(trifluoromethoxy)phenyl]acetamide]	99	937
COc1cc(N(C(C)=O)c2cc(NC(=O)Cc3c(Cl)cccc3Cl)ccn2)ccc1F [Example 104, N-{4-[2-(2,6-dichlorophenyl)acetamido]pyridin-2-yl}-N-(4-fluoro-3-methoxyphenyl)acetamide]	96	846
CC(=O)N(c1cc(F)cc(C#N)c1)c1cc(NC(=O)Cc2ccc(F)cc2Cl)ccn1 [Example 149, N-{4-[2-(2-Chlor-4-fluorphenyl)acetamido]pyridin-2-yl}-N-(3-cyan-5-fluorphenyl)acetamide]	100	450
CC(=O)N(c1cc(F)cc(F)c1)c1cc(NC(=O)Cc2ccccc2Cl)cnn1 [Example 205, N-{5-[2-(2-chlorophenyl)acetamido]pyridazin-3-yl}-N-(3,5-difluorophenyl)acetamide]	93	433
CC(=O)N(c1cc(NC(=O)Cc2ccccc2Cl)ccn1)c1ccccc1F [Example 115, N-{4-[2-(2-chlorophenyl)acetamido]pyridin-2-yl}-N-(2-fluorophenyl)acetamide]	96	391
CC(=O)N(c1cccc(F)c1)c1cc(NC(=O)Cc2c(F)cccc2Cl)cnn1 [Example 197, N-{5-[2-(2-chloro-6-fluorophenyl)acetamido]pyridazin-3-yl}-N-(3-fluorophenyl)acetamide]	93	674
CC(=O)N(c1cccc(C(F)(F)F)c1)c1cc(NC(=O)Cc2c(Cl)cccc2Cl)ccn1 [Example 9, N-{4-[2-(2,6-dichlorophenyl)acetamido]pyridin-2-yl}-N-[3-(trifluoromethyl)phenyl]acetamide]	99	749
CC(=O)N(c1cccc(C(F)(F)F)c1)c1cc(NC(=O)Cc2cccc(F)c2Cl)ccn1 [Example 8, N-{4-[2-(2-chloro-3-fluorophenyl)acetamido]pyridin-2-yl}-N-[3-(trifluoromethyl)phenyl]acetamide]	97	681
CC(=O)N(c1cc(NC(=O)Cc2cccc(C(F)(F)F)c2Cl)ccn1)c1cc(F)ccc1Cl [Example 110, N-(2-chloro-5-fluorophenyl)-N-(4-{2-[2-chloro-3-(trifluoromethyl)phenyl]acetamido}pyridin-2-yl)acetamide]	95	745
CC(=O)N(c1cc(NC(=O)Cc2ccccc2Cl)ccn1)c1ccccc1Cl [Example 106, N-(2-chlorophenyl)-N-{4-[2-(2-chlorophenyl)acetamido]pyridin-2-yl}acetamide]	95	765
COc1c(F)cc(N(C(C)=O)c2cc(NC(=O)Cc3ccccc3Cl)ccn2)cc1F [Example 96, N-{4-[2-(2-chlorophenyl)acetamido]pyridin-2-yl}-N-(3,5-difluoro-4-methoxyphenyl)acetamide]	89	362
CC(=O)N(c1ccc(C#N)c(C(F)(F)F)c1)c1cc(NC(=O)Cc2ccccc2Cl)ccn1 [Example 10, N-{4-[2-(2-chlorophenyl)acetamido]pyridin-2-yl}-N-[4-cyano-3-(trifluoromethyl)phenyl]acetamide]	94	
CC(=O)N(c1cc(NC(=O)Cc2c(Cl)cccc2Cl)ccn1)c1ccc(F)cc1Cl [Example 152, N-(2-Chlor-4-fluorphenyl)-N-{4-[2-(2,6-dichlorphenyl)acetamido]pyridin-2-yl}acetamide]	104	441
COc1cc(F)cc(N(C(C)=O)c2cc(NC(=O)Cc3ccccc3Cl)ccn2)c1 [Example 161, N-{4-[2-(2-Chlorphenyl)acetamido]pyridin-2-yl}-N-(3-fluor-5-methoxyphenyl)acetamide]	101	479
CC(=O)N(c1ccc(F)cc1)c1cc(NC(=O)Cc2ccccc2Cl)cnn1 [Example 192, N-{5-[2-(2-chlorophenyl)acetamido]pyridazin-3-yl}-N-(4-fluorophenyl)acetamide]	90	766
CC(=O)N(c1ccc(C)c(Cl)c1)c1cc(NC(=O)Cc2c(F)cccc2Cl)ccn1 [Example 183, N-{4-[2-(2-Chlor-6-fluorphenyl)acetamido]pyridin-2-yl}-N-(3-chlor-4-methylphenyl)acetamide]	101	599
CC(=O)N(c1ccc(Cl)c(F)c1)c1cc(NC(=O)Cc2c(Cl)cccc2Cl)ccn1 [Example 61, N-(4-chloro-3-fluorophenyl)-N-{4-[2-(2,6-dichlorophenyl)acetamido]pyridin-2-yl)acetamide]	98	604
COc1c(F)cc(N(C(C)=O)c2cc(NC(=O)Cc3cccc(F)c3Cl)ccn2)cc1F [Example 98, N-{4-[2-(2-chloro-3-fluorophenyl)acetamido]pyridin-2-yl}-N-(3,5-difluoro-4-methoxyphenyl)acetamide]	92	296
CC(=O)N(c1ccc(C)cc1)c1cc(NC(=O)Cc2c(Cl)cccc2Cl)ccn1 [Example 46, N-{4-[2-(2,6-dichlorophenyl)acetamido]pyridin-2-yl}-N-(4-methylphenyl)acetamide]	103	551
CC(=O)N(c1ccc(Cl)c(C#N)c1)c1cc(NC(=O)Cc2ccc(F)cc2Cl)ccn1 [Example 17, N-(4-chloro-3-cyanophenyl)-N-{4-[2-(2-chloro-4-fluorophenyl)acetamido]pyridin-2-yl)acetamide]	99	638
CC(=O)N(c1cc(NC(=O)Cc2c(F)cccc2Cl)ccn1)c1ccc(F)c(C)c1C [Example 184, N-{4-[2-(2-Chlor-6-fluorphenyl)acetamido]pyridin-2-yl}-N-(4-fluor-2,3-dimethylphenyl)acetamide]	104	893
CC(=O)N(c1ccc(Cl)c(C#N)c1)c1cc(NC(=O)Cc2cccc(F)c2Cl)ccn1 [Example 18, N-(4-chloro-3-cyanophenyl)-N-{4-[2-(2-chloro-3-fluorophenyl)acetamido]pyridin-2-yl}acetamide]	99	437

Source: patent publication US20230257351A1, “SUBSTITUTED N-[…] HAVING P2X4 RECEPTOR ANTAGONISTIC ACTIVITY” (Bayer Aktiengesellschaft, priority 2020, published 2023)
